Measured values: US20250171459A1, “2-METHYL-4',5'-DIHYDROSPIRO[PIPERIDINE-4,7'-THIENO[2,3-C]PYRAN] DERIVATIVES AS INHIBITORS OF APOL1 AND METHODS OF USING SAME” (Vertex Pharmaceuticals Incorporated, priority 2022, published 2025)

molecular target: T1, APOL1 (Homo sapiens, UniProt O14791); test: MultiTox-Fluor Multiplex Cytotoxicity Assay in tet-inducible APOL1 T-REx-HEK293 cells (cell rescue, ratio of dead to live cells); assay type: cell-based; settings: tet-inducible transgenic APOL1 T-REx-HEK293 cell lines, 50 ng/mL tet, 24 hours; read-out: IP50 (i.e., IC50 for cell proliferation)
T1 sequence (O14791 1-398 S342G/I384M): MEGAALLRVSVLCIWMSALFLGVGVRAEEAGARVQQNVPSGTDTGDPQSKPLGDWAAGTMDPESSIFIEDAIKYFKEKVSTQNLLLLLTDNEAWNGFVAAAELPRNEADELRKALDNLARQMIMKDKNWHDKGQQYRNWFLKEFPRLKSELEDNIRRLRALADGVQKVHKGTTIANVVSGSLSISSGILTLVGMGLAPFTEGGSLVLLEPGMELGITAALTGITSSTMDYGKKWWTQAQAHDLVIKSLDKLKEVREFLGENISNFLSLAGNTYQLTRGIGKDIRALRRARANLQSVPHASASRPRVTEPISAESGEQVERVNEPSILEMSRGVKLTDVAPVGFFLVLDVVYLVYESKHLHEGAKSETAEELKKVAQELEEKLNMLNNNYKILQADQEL
How it was run: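 T-REx-HEK293 cells with tet-inducible APOL1 were treated with compound (10 μM top, 10-point 3-fold dilution, duplicate) plus 50 ng/mL tetracycline for 24 h at 37° C, in DMEM with 2% tet-free FBS. MultiTox-Fluor protease signals gave a dead/live ratio, normalized to no tet (100% viability) and tet alone (0%).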

SMILES | IC50
Cc1cc(CN2CC[C@]3(C[C@@H]2C)OC[C@H](O)c2cc(Cl)sc23)nn1C [Compound 781] | 500 to 1000 nM
CCc1cc2c(s1)CCOC21CCN(Cc2cn(Cc3cc(C(N)=O)co3)nn2)CC1 [Compound 1106] | 500 to 1000 nM
C[C@H]1C[C@@]2(CCN1Cc1ccc(F)cn1)OCCc1cc(Cl)sc12 [Compound 665] | 100 to 500 nM
C[C@H]1C[C@@]2(CCN1Cc1cnn(CC(O)C(F)(F)F)c1)OCCc1c2sc(C(F)(F)F)c1CO (some centres unmarked) [Compound 894] | < 100 nM
C[C@H]1C[C@@]2(CCN1Cc1ccn(C)n1)OCCc1cc(CC(F)F)sc12 [Compound 578] | < 100 nM
C[C@H]1C[C@@]2(CCN1Cc1cnn(CC(O)CC(C)(C)C#N)c1)OCCc1c2sc(C(F)(F)F)c1CO (some centres unmarked) [Compound 963] | < 100 nM
CCc1cc2c(s1)CCO[C@@]21CCN(Cc2cn(C3CN(S(=O)(=O)c4c[nH]cn4)C3)nn2)[C@@H](C)C1 [Compound 2] | < 100 nM
CCc1cc2c(s1)CCO[C@@]21CCN(CCC(F)(F)F)[C@@H](C)C1 [Compound 275] | 500 to 1000 nM
CCc1cc2c(s1)CCO[C@@]21CCN(Cc2cn(CC3CN(C)C(=O)CO3)nn2)[C@@H](C)C1 (some centres unmarked) [Compound 174] | 100 to 500 nM
C[C@H]1C[C@@]2(CCN1Cc1cnc(NC(C)(C)CO)nc1)OC[C@](O)(C(F)F)c1cc(Cl)sc12 [Compound 830] | < 100 nM
CCc1cc2c(s1)CCO[C@@]21CCN(Cc2cn(C3CN(S(=O)(=O)c4cn[nH]c4)C3)nn2)[C@@H](C)C1 [Compound 4] | < 100 nM
CCc1cc2c(s1)CCO[C@@]21CCN(Cc2cn(CC(O)Cc3ccc(F)cc3)nn2)[C@@H](C)C1 (some centres unmarked) [Compound 112] | < 100 nM
CC(C)OC1CO[C@@]2(CCN(Cc3cnn(CCS(C)(=O)=O)c3)[C@@H](C)C2)c2sc(Cl)cc21 (some centres unmarked) [Compound 845] | 100 to 500 nM
CCc1cc2c(s1)CCO[C@@]21CCN(Cc2c[nH]nn2)[C@@H](C)C1 [Compound 8, (2′S,4R)-2-ethyl-2′-methyl-1′-(1H-triazol-4-ylmethyl)spiro[6,7-dihydrothieno[3,2-c]pyran-4,4′-piperidine]] | < 100 nM
CCc1cc2c(s1)CCO[C@@]21CCN(Cc2cnc(NC3CNC(=O)C3)nc2)[C@@H](C)C1 (some centres unmarked) [Compound 218] | < 100 nM
C[C@H]1C[C@@]2(CCN1Cc1cnn(CCS(C)(=O)=O)c1)OCCc1cc(CO)sc12 [Compound 1016, [(2′S,7R)-2′-methyl-1′-[[1-(2-methylsulfonylethyl)pyrazol-4-yl]methyl]spiro[4,5-dihydrothieno[2,3-c]pyran-7,4′-piperidine]-2-yl]methanol] | 100 to 500 nM
CCc1cc2c(s1)CCOC21CCN(Cc2ccc(OC)nc2)CC1 [Compound 1157] | 100 to 500 nM
CCc1cc2c(s1)CCO[C@@]21CCN(CC2CN(C(=O)C3CCS(=O)(=O)N3)C2)[C@@H](C)C1 (some centres unmarked) [Compound 446] | < 100 nM

SMILES | IC50
C[C@H]1C[C@@]2(CCN1Cc1cnn(CCS(C)(=O)=O)c1)OCC(O)c1cc(C(F)(F)C(F)F)sc12 (stereo partly drawn) [Compound 1012, (2′S, 7R)-2′-methyl-1′-[[1-(2-methylsulfonylethyl)pyrazol-4-yl]methyl]-2-(1,1,2,2-tetrafluoroethyl)spiro[4,5-dihydrothieno[2,3-c]pyran-7,4′-piperidine]-4-ol] | < 100 nM
COCCn1cc(CN2CC[C@]3(C[C@@H]2C)OCCc2c3sc(C(F)(F)F)c2CO)cn1 [Compound 906] | < 100 nM
C[C@H]1C[C@@]2(CCN1Cc1cnn(CC3(O)CCS(=O)(=O)CC3)c1)OCCc1c2sc(C(F)(F)F)c1CO [Compound 947] | < 100 nM
CCc1cc2c(s1)CCO[C@@]21CCN(C[C@H]2C[C@@H](NC(=O)CC#N)C2)[C@@H](C)C1 [Compound 334] | 100 to 500 nM
CCc1cc2c(s1)CCO[C@@]21CCN(C[C@H]2C[C@@H](NC(=O)CNS(C)(=O)=O)C2)[C@@H](C)C1 [Compound 364] | 100 to 500 nM
CC(O)CCN1CC[C@]2(C[C@@H]1C)OCCc1cc(Cl)sc12 (some centres unmarked) [Compound 643] | 500 to 1000 nM
C[C@H]1C[C@@]2(CCN1Cc1cnn(CCS(C)(=O)=O)c1)OCC(O)c1cc(C(F)(F)F)sc12 (single isomer, unassigned) [Compound 882] | < 100 nM
CCc1cc2c(s1)CCO[C@@]21CCN(Cc2cn(Cc3c(CO)cnc(C)c3O)nn2)[C@@H](C)C1 [Compound 39] | 100 to 500 nM
CCc1cc2c(s1)CCO[C@@]21CCN(C[C@H](O)c2ccccc2)[C@@H](C)C1 [Compound 246] | < 100 nM
C[C@H]1C[C@@]2(CCN1Cc1ccnn1C)OC[C@H](O)c1cc(Cl)sc12 [Compound 787] | 500 to 1000 nM
CCc1cc2c(s1)CCO[C@@]21CCN(C[C@H]2C[C@@H](NC(=O)c3nnc(C)o3)C2)[C@@H](C)C1 [Compound 347] | 100 to 500 nM
CCc1cc2c(s1)CCO[C@@]21CCN(CC2CN(C(=O)C3CCCCC3)C2)[C@@H](C)C1 [Compound 448] | 100 to 500 nM
CCc1cc2c(s1)CCOC21CCN(Cc2ccc(C(=O)N[C@H]3CC[C@H](O)CC3)nc2)CC1 [Compound 1043, 5-((2′-ethyl-6′,7′-dihydrospiro[piperidine-4,4′-thieno[3,2-c]pyran]-1-yl)methyl)-N-((1r,4r)-4-hydroxycyclohexyl)picolinamide] | < 100 nM
CCc1cc2c(s1)CCO[C@@]21CCN(C[C@H]2C[C@@H](NC(=O)Oc3ccccc3F)C2)[C@@H](C)C1 [Compound 372] | 500 to 1000 nM
CCc1cc2c(s1)CCO[C@@]21CCN(C[C@H]2C[C@@H](NC(=O)COCC(F)(F)F)C2)[C@@H](C)C1 [Compound 301, N-[3-[[(2′S,4R)-2-ethyl-2′-methyl-spiro[6,7-dihydrothieno[3,2-c]pyran-4,4′-piperidine]-1′-yl]methyl]cyclobutyl]-2-(2,2,2-trifluoroethoxy)acetamide] | 100 to 500 nM
CCc1cc2c(s1)CCO[C@@]21CCN(CC2CN(C(=O)[C@H](C)NC(C)=O)C2)[C@@H](C)C1 [Compound 481] | 100 to 500 nM
CCc1cc2c(s1)CCO[C@@]21CCN(C[C@H]2C[C@@H](NC(=O)C3(O)CCC3)C2)[C@@H](C)C1 [Compound 330] | < 100 nM
